≈ marks a conversion by molar mass, not a printed value.
Legend:
Assay type in all cases: functional
[1] = system: Pseudomonas aeruginosa; test: Antibacterial activity against drug-resistant Pseudomonas aeruginosa after 24 hrs by micro broth dilution method
[2] = system: Staphylococcus aureus; test: Antibacterial activity against Staphylococcus aureus ATCC 25923 after 24 hrs by micro broth dilution method; conditions: ATCC 25923, 24 h
[3] = system: Staphylococcus aureus; test: Antibacterial activity against methicillin-resistant Staphylococcus aureus N315 after 24 hrs by micro broth dilution method; conditions: N315, 24 h
[4] = system: Staphylococcus aureus; test: Antibacterial activity against drug-resistant Staphylococcus aureus after 24 hrs by micro broth dilution method
[5] = system: Pseudomonas aeruginosa; test: Antibacterial activity against Pseudomonas aeruginosa ATCC 27853 after 24 hrs by micro broth dilution method; conditions: ATCC 27853, 24 h
[6] = system: Candida tropicalis; test: Antifungal activity against Candida tropicalis after 24 hrs by micro broth dilution method
[7] = system: Candida albicans; test: Antifungal activity against drug-resistant Candida albicans after 24 hrs by micro broth dilution method
[8] = system: Escherichia coli; test: Antibacterial activity against Escherichia coli ATCC 25922 after 24 hrs by micro broth dilution method; conditions: ATCC 25922, 24 h
[9] = system: Staphylococcus aureus; test: Antibacterial activity against Staphylococcus aureus ATCC 29213 after 24 hrs by micro broth dilution method; conditions: ATCC 29213, 24 h
[10] = system: Candida albicans; test: Antifungal activity against Candida albicans ATCC 90023 after 24 hrs by micro broth dilution method; conditions: ATCC 90023, 24 h
[11] = system: Escherichia coli; test: Antibacterial activity against drug-resistant Escherichia coli after 24 hrs by micro broth dilution method
[12] = system: Pseudomonas aeruginosa; test: Potency index, ratio of metronidazole MIC to compound MIC for Pseudomonas aeruginosa ATCC 27853
[13] = system: Pseudomonas aeruginosa; test: Potency index, ratio of norfloxacin MIC to compound MIC for Pseudomonas aeruginosa ATCC 27853

SMILES: CC(=O)/C(=C\c1ccccc1Cl)n1c([N+](=O)[O-])cnc1C
- MIC [1]: 830 µM (≈ 254 µg/mL)
- MIC [2]: 820 µM (≈ 251 µg/mL)
- MIC [3]: 1640 µM (≈ 501 µg/mL)
- MIC [4]: 1640 µM (≈ 501 µg/mL)
- MIC [5]: 830 µM (≈ 254 µg/mL)
- MIC [6]: 64 µg/mL (≈ 209 µM)
- MIC [7]: 512 µg/mL (≈ 1670 µM)
- MIC [8]: 410 µM (≈ 125 µg/mL)
- MIC [9]: 820 µM (≈ 251 µg/mL)
- MIC [10]: 32 µg/mL (≈ 105 µM)
- MIC [11]: 1640 µM (≈ 501 µg/mL)

SMILES: Cc1ncc([N+](=O)[O-])n1CCO [METRONIDAZOLE]
- MIC [1]: 2970 µM (≈ 508 µg/mL)
- MIC [2]: 2970 µM (≈ 508 µg/mL)
- MIC [3]: 2970 µM (≈ 508 µg/mL)
- MIC [4]: 2970 µM (≈ 508 µg/mL)
- MIC [5]: 2970 µM (≈ 508 µg/mL)
- MIC [8]: 2970 µM (≈ 508 µg/mL)
- MIC [9]: 2970 µM (≈ 508 µg/mL)
- MIC [11]: 2970 µM (≈ 508 µg/mL)

SMILES: CC(=O)/C(=C\c1ccc(Cl)cc1)n1c([N+](=O)[O-])cnc1C
- MIC [1]: 1640 µM (≈ 501 µg/mL)
- MIC [2]: 1640 µM (≈ 501 µg/mL)
- MIC [3]: 1640 µM (≈ 501 µg/mL)
- MIC [4]: 210 µM (≈ 64.2 µg/mL)
- MIC [5]: 820 µM (≈ 251 µg/mL)
- MIC [6]: 128 µg/mL (≈ 419 µM)
- MIC [7]: 512 µg/mL (≈ 1670 µM)
- MIC [8]: 410 µM (≈ 125 µg/mL)
- MIC [9]: 1640 µM (≈ 501 µg/mL)
- MIC [10]: 128 µg/mL (≈ 419 µM)
- MIC [11]: 1640 µM (≈ 501 µg/mL)

SMILES: CCn1c2ccccc2c2cc(/C=C(\C(C)O)n3c([N+](=O)[O-])cnc3C)ccc21 (centres undefined)
- MIC [1]: 1310 µM (≈ 511 µg/mL)
- MIC [2]: 1310 µM (≈ 511 µg/mL)
- MIC [3]: 1310 µM (≈ 511 µg/mL)
- MIC [4]: 1310 µM (≈ 511 µg/mL)
- MIC [5]: 1310 µM (≈ 511 µg/mL)
- MIC [6]: 256 µg/mL (≈ 656 µM)
- MIC [7]: 512 µg/mL (≈ 1310 µM)
- MIC [8]: 1310 µM (≈ 511 µg/mL)
- MIC [9]: 660 µM (≈ 258 µg/mL)
- MIC [10]: 512 µg/mL (≈ 1310 µM)
- MIC [11]: 1310 µM (≈ 511 µg/mL)

SMILES: CC(=O)/C(=C\c1ccc(C#N)cc1)n1c([N+](=O)[O-])cnc1C
- MIC [1]: 430 µM (≈ 127 µg/mL)
- MIC [2]: 860 µM (≈ 255 µg/mL)
- MIC [3]: 1720 µM (≈ 510 µg/mL)
- MIC [4]: 1720 µM (≈ 510 µg/mL)
- MIC [5]: 860 µM (≈ 255 µg/mL)
- MIC [6]: 256 µg/mL (≈ 864 µM)
- MIC [7]: 256 µg/mL (≈ 864 µM)
- MIC [8]: 860 µM (≈ 255 µg/mL)
- MIC [9]: 860 µM (≈ 255 µg/mL)
- MIC [10]: 128 µg/mL (≈ 432 µM)
- MIC [11]: 1720 µM (≈ 510 µg/mL)

SMILES: Cc1ccc(/C=C(\C(C)O)n2c([N+](=O)[O-])cnc2C)cc1 (centres undefined)
- MIC [1]: 890 µM (≈ 256 µg/mL)
- MIC [2]: 890 µM (≈ 256 µg/mL)
- MIC [3]: 1780 µM (≈ 511 µg/mL)
- MIC [4]: 1780 µM (≈ 511 µg/mL)
- MIC [5]: 440 µM (≈ 126 µg/mL)
- MIC [6]: 128 µg/mL (≈ 445 µM)
- MIC [7]: 512 µg/mL (≈ 1780 µM)
- MIC [8]: 440 µM (≈ 126 µg/mL)
- Ratio [12]: 7
- MIC [9]: 1780 µM (≈ 511 µg/mL)
- MIC [10]: 64 µg/mL (≈ 223 µM)
- MIC [11]: 1780 µM (≈ 511 µg/mL)
- Ratio [13]: 4

SMILES: COc1cc(/C=C(\C(C)=O)n2c([N+](=O)[O-])cnc2C)ccc1O
- MIC [1]: 800 µM (≈ 254 µg/mL)
- MIC [2]: 400 µM (≈ 127 µg/mL)
- MIC [3]: 1600 µM (≈ 508 µg/mL)
- MIC [4]: 1600 µM (≈ 508 µg/mL)
- MIC [5]: 400 µM (≈ 127 µg/mL)
- MIC [6]: 256 µg/mL (≈ 807 µM)
- MIC [7]: 256 µg/mL (≈ 807 µM)
- MIC [8]: 100 µM (≈ 31.7 µg/mL)
- MIC [9]: 1600 µM (≈ 508 µg/mL)
- MIC [10]: 128 µg/mL (≈ 403 µM)
- MIC [11]: 800 µM (≈ 254 µg/mL)
- Ratio [13]: 4 - 16

SMILES: CC(=O)/C(=C\c1ccc(N(C)C)cc1)n1c([N+](=O)[O-])cnc1C
- MIC [1]: 1620 µM (≈ 509 µg/mL)
- MIC [2]: 1620 µM (≈ 509 µg/mL)
- MIC [3]: 1620 µM (≈ 509 µg/mL)
- MIC [4]: 1620 µM (≈ 509 µg/mL)
- MIC [5]: 410 µM (≈ 129 µg/mL)
- MIC [6]: 256 µg/mL (≈ 814 µM)
- MIC [7]: 512 µg/mL (≈ 1630 µM)
- MIC [8]: 810 µM (≈ 255 µg/mL)
- MIC [9]: 410 µM (≈ 129 µg/mL)
- MIC [10]: 128 µg/mL (≈ 407 µM)
- MIC [11]: 810 µM (≈ 255 µg/mL)
- Ratio [13]: 4 - 16

SMILES: Cc1ncc([N+](=O)[O-])n1/C(=C/c1ccc(C#N)cc1)C(C)O (centres undefined)
- MIC [1]: 1710 µM (≈ 510 µg/mL)
- MIC [2]: 1710 µM (≈ 510 µg/mL)
- MIC [3]: 1710 µM (≈ 510 µg/mL)
- MIC [4]: 1710 µM (≈ 510 µg/mL)
- MIC [5]: 860 µM (≈ 257 µg/mL)
- MIC [6]: 512 µg/mL (≈ 1720 µM)
- MIC [7]: 512 µg/mL (≈ 1720 µM)
- MIC [8]: 860 µM (≈ 257 µg/mL)
- MIC [9]: 1710 µM (≈ 510 µg/mL)
- MIC [10]: 64 µg/mL (≈ 215 µM)
- MIC [11]: 1710 µM (≈ 510 µg/mL)

SMILES: Cc1ncc([N+](=O)[O-])n1/C(=C/c1ccccc1)C(C)O (centres undefined)
- MIC [1]: 940 µM (≈ 257 µg/mL)
- MIC [2]: 1870 µM (≈ 511 µg/mL)
- MIC [3]: 1870 µM (≈ 511 µg/mL)
- MIC [4]: 1870 µM (≈ 511 µg/mL)
- MIC [5]: 230 µM (≈ 62.9 µg/mL)
- MIC [6]: 128 µg/mL (≈ 468 µM)
- MIC [7]: 512 µg/mL (≈ 1870 µM)
- MIC [8]: 1870 µM (≈ 511 µg/mL)
- MIC [9]: 1870 µM (≈ 511 µg/mL)
- MIC [10]: 16 µg/mL (≈ 58.5 µM)
- MIC [11]: 1870 µM (≈ 511 µg/mL)
- Ratio [13]: 4 - 16

SMILES: Cc1ncc([N+](=O)[O-])n1/C(=C/c1ccccc1Cl)C(C)O (centres undefined)
- MIC [1]: 1670 µM (≈ 514 µg/mL)
- MIC [2]: 1670 µM (≈ 514 µg/mL)
- MIC [3]: 1670 µM (≈ 514 µg/mL)
- MIC [4]: 1670 µM (≈ 514 µg/mL)
- MIC [5]: 830 µM (≈ 255 µg/mL)
- MIC [6]: 512 µg/mL (≈ 1660 µM)
- MIC [7]: 512 µg/mL (≈ 1660 µM)
- MIC [8]: 210 µM (≈ 64.6 µg/mL)
- MIC [9]: 1670 µM (≈ 514 µg/mL)
- MIC [10]: 32 µg/mL (≈ 104 µM)
- MIC [11]: 1670 µM (≈ 514 µg/mL)

SMILES: Cc1ncc([N+](=O)[O-])n1/C(=C/c1ccc(Cl)cc1)C(C)O (centres undefined)
- MIC [1]: 1670 µM (≈ 514 µg/mL)
- MIC [2]: 1670 µM (≈ 514 µg/mL)
- MIC [3]: 1670 µM (≈ 514 µg/mL)
- MIC [4]: 830 µM (≈ 255 µg/mL)
- MIC [5]: 410 µM (≈ 126 µg/mL)
- MIC [6]: 256 µg/mL (≈ 832 µM)
- MIC [7]: 512 µg/mL (≈ 1660 µM)
- MIC [8]: 1670 µM (≈ 514 µg/mL)
- MIC [9]: 830 µM (≈ 255 µg/mL)
- MIC [10]: 16 µg/mL (≈ 52 µM)
- MIC [11]: 1670 µM (≈ 514 µg/mL)
